Test results published in patent US8298781B2, “Compositions and methods for characterizing and regulating olfactory sensation” (Duke University, priority 2007, dated 2012).

Key:
Format in all cases: in vivo
human subjects [1] = test: Human olfactory psychophysics: intensity rating by OR7D4 genotype; conditions: 7-point scale, two concentrations pooled; N=100 RT/WM, N=255 RT/RT
Method: (§1) Human olfactory psychophysics. All human subjects gave informed consent to participate in this study and were tested in a well-ventilated room. Normal human subjects (n=412; 218 female, 194 male; median age 34, age range 19-75) were pre-screened to exclude pregnant women and those with medical conditions causing general impairment of the sense of smell. All subjects completed two replicates of the test separated by at least 4 days. Odors were presented in amber vials as previously described (see, e.g., Keller, A., et al., Nat Neurosci 7, 337-338 (2004); herein incorporated by reference in its entirety) using bar-coded symbols to ensure that subjects were blind to the identity of all odors. The intensity and valence of 66 odors at two concentrations (“high” and “low”) and two solvents was rated using a 7-point scale. Thresholds were calculated using the single staircase method with seven reversals (see, e.g., Doty, R. L., et al., Chem Senses 20, 645-656 (1995); Doty, R. L. & Laing, D. G. in Handbook of Olfaction and Gustation (ed. Doty, R. L.) pp. 203-228 (Marcel Dekker, Inc., New York, 2003); each of which are herein incorporated by reference in their entireties). Threshold tests included both steroids as binary dilutions from […] (binary dilution 6) to 1: 134,217,728 (binary dilution 27). Subjects who could not reliably distinguish a 1:64 dilution of androstenone and androstadienone from solvent were operationally defined as anosmic to these odorous steroids, although it could not be excluded that these subjects could detect higher concentrations of these steroids (see, e.g., Bremner, E. A., et al., Chem Senses 28, 423-432 (2003); herein incorporated by reference in its entirety). Odor profiling used the method established by Dravnieks, et al. (see, e.g., Dravnieks, A., et al., Science 218, 799-801 (1982); herein incorporated by reference in its entirety).
(§2) Stimuli for olfactory psychophysics. All odors were presented as one ml of an odor dilution in either propylene glycol or paraffin oil in 20 ml amber glass vials. All of these compounds were used in the intensity and valence rating portion of the smell test.
(§3) Olfactory ratings. The intensity and valence of 66 odors were rated at two different concentrations (high and low) and the intensity and valence of the two solvents (paraffin oil and propylene glycol) was rated three times. Prior to these ratings, six stimuli that represented the spectrum of intensity and valence of the stimuli used in the study were presented to allow the subjects to calibrate the usage of the scale. The subjects were unaware that the six first stimuli served that purpose. After the rating of the 66 odors at two concentrations and the rating of the solvents, 15 stimuli that were presented earlier in the experiment were repeated to test for the effect of adaptation and olfactory fatigue on the ratings. The subjects were not aware that the last 15 stimuli served this purpose. These 15 stimuli and the six first stimuli were not included in the analysis presented here. […] The 15 control stimuli and their concentrations were as follows:
(§4) In addition there was a button on the screen labeled “I can't smell anything” and a button labeled “Don't Know”. If the “Don't Know” button was pressed, no rating was recorded. If the “I can't smell anything” button was pressed, a 0 was recorded for the intensity rating and no rating was recorded for the valence rating. The other ratings were transformed according to the following scheme:
(§5) • Extremely Weak=1 • Very Weak=2 • Slightly Weak=3 • Neither Weak nor Strong=4 • Slightly Strong=5 • Very Strong=6 • Extremely Strong=7 Valence Rating • Extremely Unpleasant=1 • Very Unpleasant=2 • Slightly Unpleasant=3 • Neither Unpleasant nor Pleasant=4 • Slightly Pleasant=5 • Very Pleasant=6 • Extremely Pleasant=7
(§6) Averages for the ratings of the different genotypes were calculated. […]

human subjects [2] = test: Human olfactory psychophysics: valence rating by OR7D4 genotype; conditions: 7-point scale, two concentrations pooled
Method: as §1, §2, §3, §4, §5, §6

human subjects [3] = test: Human olfactory psychophysics: odor profiling with 146 descriptors; conditions: vanillin 1/200
Method: Human olfactory psychophysics. All human subjects gave informed consent to participate in this study and were tested in a well-ventilated room. Normal human subjects (n=412; 218 female, 194 male; median age 34, age range 19-75) were pre-screened to exclude pregnant women and those with medical conditions causing general impairment of the sense of smell. All subjects completed two replicates of the test separated by at least 4 days. Odors were presented in amber vials as previously described (see, e.g., Keller, A., et al., Nat Neurosci 7, 337-338 (2004); herein incorporated by reference in its entirety) using bar-coded symbols to ensure that subjects were blind to the identity of all odors. The intensity and valence of 66 odors at two concentrations (“high” and “low”) and two solvents was rated using a 7-point scale. Thresholds were calculated using the single staircase method with seven reversals (see, e.g., Doty, R. L., et al., Chem Senses 20, 645-656 (1995); Doty, R. L. & Laing, D. G. in Handbook of Olfaction and Gustation (ed. Doty, R. L.) pp. 203-228 (Marcel Dekker, Inc., New York, 2003); each of which are herein incorporated by reference in their entireties). Threshold tests included both steroids as binary dilutions from […] (binary dilution 6) to 1: 134,217,728 (binary dilution 27). […]
Assigning descriptors to odors. Subjects assessed the quality of six odors using an odor profiling method that has shown to produce stable profiles of odorants. […] Odor profiling typically took five minutes per odorant and was performed as a computer-controlled selftest in which the subject's responses were directly recorded. […] The descriptors used to describe the other four odors (vanillin, pentadecalactone, androstenone, and propylene glycol) were evaluated. […]

SMILES | intensity rating, OR7D4 RT/WM vs RT/RT subjects (human subjects [1]) | valence rating, OR7D4 RT/WM vs RT/RT subjects (human subjects [2]) | use of two descriptors, OR7D4 RT/WM vs RT/RT subjects (human subjects [3])
O=C1CCCCCCCCCCCCCCO1 [pentadecalactone] | not affected |  | 
CC1COCc2cc3c(cc21)C(C)(C)C(C)C3(C)C (centres unmarked) [galaxolide] | not affected |  | 
COc1cc(C=O)ccc1O [vanillin] |  | less pronounced—but statistically significant—difference | comparable increase
CCCCCCCCOC(C)=O [octyl acetate] |  | less pronounced—but statistically significant—difference | 
